Results published in US8618082B2, “Lupeol anti-tumor agent and uses thereof” (Wisconsin Alumni Research Foundation, priority 2004, dated 2013).
Entries after “also recorded” stand apart in the source; their conditions may differ.

Test system: Fas receptor, FADD and other death receptors in LNCaP cells
Test: Death receptor mediated apoptotic pathway in LNCaP cells (western blot)
Format: cell-based, human
Experimental: FIG. 14 depicts effect of Lupeol treatment on death receptor mediated apoptotic pathway in LNCaP cells: Cells were treated with vehicle (DMSO+alcohol) only or specified concentrations of Lupeol for 48 h, harvested and total cell lysates were prepared. The expression of death receptors including Fas and death adaptor proteins including FADD were determined by western blot analysis. Equal loading was confirmed by stripping immunoblots and reprobing them for β-actin. The immunoblots shown here are representative of three independent experiments with similar results.

## C=C(C)[C@@H]1CC[C@]2(C)CC[C@]3(C)[C@H](CC[C@@H]4[C@@]5(C)CC[C@H](O)C(C)(C)[C@@H]5CC[C@]43C)[C@@H]12 [Lupeol, Lup-20(29)-en-3β-ol]
  expression of cell death-inducing receptor ligands FAS-L, APO-3L and TRAIL: no significant change
  expression/activation of other death receptors (TRADD, TNFR-1, APO-3, DR-4/5): no change in the protein expression; also recorded: No other death receptor such as TNFR1, DR4/5 were activated
48 h
  expression of FADD protein: increase in the expression of FADD protein; also recorded: induces the expression
  expression of FAS receptor protein: significant increase; also recorded: induces the expression
